Assay results taken from patent publication EP2758042B1, “STABLE, LOW-TOXICITY, STERILIZABLE COMPOSITION FOR OPHTHALMIC DYING” (Arcadophta, priority 2011, dated 2013).

Experiments:
[1] = system: cellules rétiniennes épithéliales ARPE-19; test: Cytolysis after 30 min or 5 min exposure (Example 4); type: cell-based
Experimental: (§1) Dans cet essai, on évalue également l'influence de la présence d'eau lourde dans les solutions sur leur cytotoxicité vis-à-vis de cellules rétiniennes épithéliales ARPE-19 fournies par ATCC, dans les mêmes conditions générales que dans l'exemple 1.
(§2) Les cellules sont exposées aux solutions 30 minutes dans une première série d'essais, et cinq minutes dans une deuxième série d'essais. Des mesures de cytolyse sont réalisées 1,5 h et 48 h après ce traitement.
(§3) Les mêmes mesures sont effectuées à titre de comparaison sur composition de Monoblue® 0,15% commercialisée par la société Arcadophta, Toulouse, France, sur une solution d'eau oxygénée 100mM et sur une solution saline d'irrigation intraoculaire (BSS).

[2] = system: cellules rétiniennes épithéliales ARPE-19; test: Number of cells after exposure (Example 4); type: cell-based
Experimental: as §1, §2, §3

[3] = Exposition 5 min, culture 48 h après exposition
[4] = Exposition 30 min, culture 1 h30 après exposition

% Cellules cytolysées Moyenne [1, 3]: 88,3%
% Cellules cytolysées Moyenne [1, 4]: 73,63%
Nombre de cellules Moyenne [2, 3]: 129,00
Nombre de cellules Moyenne [2, 4]: 29,33
Substance: eau oxygénée [H2O2 100mM]
